Our source for the EC50 values is patent US20260265233A1, “BENZOTHIOPHENE DERIVATIVES AS RXFP1 AGONISTS” (BRISTOL-MYERS SQUIBB COMPANY, priority 2021, published 2026).

pEC50: −log10 of the molar value.

The experiment addresses T1, human RXFP1 (Homo sapiens, UniProt Q9HBX9).
T1 construct: expressed in transfected cells
T1 sequence (Q9HBX9 1-757): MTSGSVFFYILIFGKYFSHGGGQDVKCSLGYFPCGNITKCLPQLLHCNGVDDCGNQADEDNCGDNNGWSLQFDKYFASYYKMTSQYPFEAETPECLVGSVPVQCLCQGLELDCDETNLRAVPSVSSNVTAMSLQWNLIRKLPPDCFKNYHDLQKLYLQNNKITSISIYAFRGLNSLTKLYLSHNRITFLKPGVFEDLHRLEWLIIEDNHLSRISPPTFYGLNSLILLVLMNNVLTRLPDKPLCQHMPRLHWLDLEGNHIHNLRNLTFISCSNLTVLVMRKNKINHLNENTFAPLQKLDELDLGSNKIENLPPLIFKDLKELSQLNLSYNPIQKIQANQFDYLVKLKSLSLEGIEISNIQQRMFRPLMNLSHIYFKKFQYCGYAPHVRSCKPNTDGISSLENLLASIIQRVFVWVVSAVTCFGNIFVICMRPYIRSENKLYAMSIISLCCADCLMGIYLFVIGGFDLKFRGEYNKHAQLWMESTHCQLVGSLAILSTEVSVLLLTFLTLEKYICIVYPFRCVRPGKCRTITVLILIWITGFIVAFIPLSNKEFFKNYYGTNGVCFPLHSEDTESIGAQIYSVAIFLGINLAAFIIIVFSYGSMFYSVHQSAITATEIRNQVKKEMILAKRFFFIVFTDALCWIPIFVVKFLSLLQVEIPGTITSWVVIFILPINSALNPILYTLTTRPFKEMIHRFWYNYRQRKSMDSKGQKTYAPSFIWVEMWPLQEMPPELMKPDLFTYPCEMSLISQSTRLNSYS
As to the kind of experiment: hRXFP1 HEK293 cAMP assay (HTRF). The note with it: HEK293 cells stably expressing human RXFP1; 30 min at rt; intracellular cAMP by HTRF. The experiment is classed as cell-based. The method in brief: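 HEK293 cells stably expressing human RXFP1 treated 30 min at rt with compound (0.010 nM to 50 μM, 2% DMSO) in HBSS/HEPES buffer with 0.5 mM IBMX. Intracellular cAMP measured by HTRF (665/590 nm ratio) against a cAMP standard curve; potency fitted by 4-parameter logistic.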
Take `COc1ccc(C2CC3(CNC3)C2)cc1C(=O)Nc1c(C(=O)Nc2ccc(F)c(C(F)(F)F)c2)sc2cc(C(F)(F)F)ccc12` [Example 207, N-(4-fluoro-3-(trifluoromethyl)phenyl)-3-(2-methoxy-5-(2-azaspiro[3.3]heptan-6-yl)benzamido)-6-(trifluoromethyl) benzo[b] thiophene-2-carboxamide]: the negative-log EC50 (pEC50) is 5.84.

`COc1ccc(N2CCOC(CC(C)(C)O)C2)cc1C(=O)Nc1c(C(=O)Nc2ccc(F)c(C(F)(F)F)c2)sc2cc(C(F)(F)F)ccc12` (single isomer, unassigned) [Example 227, N-(4-fluoro-3-(trifluoromethyl)phenyl)-3-(5-(2-(2-hydroxy-2-methylpropyl)morpholino)-2-methoxy-benzamido)-6-(trifluoromethyl) benzo[b] thiophene-2-carboxamide]: the negative logarithm of the EC50 (pEC50) was 5.89.

The molecule `COc1ccc(C2CC2C(=O)N2CC(S(C)(=O)=O)C2)cc1C(=O)Nc1c(C(=O)Nc2ccc(F)c(C(F)(F)F)c2)sc2cc(C(F)(F)F)ccc12` (single isomer, unassigned) [Example 164, N-[4-fluoro-3-(trifluoromethyl)phenyl]-3-{5-[2-(3-methane-sulfonylazetidine-1-carbonyl)cyclopropyl]-2-methoxy-benzamido}-6-(trifluoromethyl)-1-benzothiophene-2-carboxamide] gave a negative logarithm of the EC50 (pEC50) of 6.06.

With `COc1ccc(C2=NOC3CN(CC(C)(C)O)CC23)cc1C(=O)Nc1c(C(=O)Nc2ccc(F)c(C(F)(F)F)c2)sc2cc(C(F)(F)F)ccc12` (single isomer, unassigned) [Example 53, N-(4-fluoro-3-(trifluoromethyl)phenyl)-3-(5-(5-(2-hydroxy-2-methylpropyl)-3a, 5,6,6a-tetrahydro-4H-pyrrolo[3,4-d]isoxazol-3-yl)-2-methoxybenzamido)-6-(trifluoromethyl)benzo[b]thiophene-2-carboxamide], the pEC50 was 7.15.

`COc1ccc(C2CCN(C3COC3)C2)cc1C(=O)Nc1c(C(=O)Nc2ccc(F)c(C(F)(F)F)c2)sc2cc(C(F)(F)F)ccc12` (stereo not shown) [Example 154, N-(4-fluoro-3-(trifluoromethyl)phenyl)-3-(2-methoxy-5-(1-(oxetan-3-yl)pyrrolidin-3-yl)benzamido)-6-(trifluoromethyl) benzo[b] thiophene-2-carboxamide] had a negative logarithm of the EC50 (pEC50) of 6.26. Against the preceding molecule, the pEC50 is 0.89 log units lower.

For the molecule `COc1ccc(C2=NOC(CO)C2)cc1C(=O)Nc1c(C(=O)Nc2ccc(F)c(C(F)(F)F)c2)sc2cc(C(F)(F)F)ccc12` (single isomer, unassigned) [Example 249, N-(4-fluoro-3-(trifluoromethyl)phenyl)-3-(5-(5-(hydroxymethyl)-4,5-dihydroisoxazol-3-yl)-2-methoxy-benzamido)-6-(trifluoromethyl) benzo[b] thiophene-2-carboxamide], the pEC50 is 5.43.

Regarding `COc1ccc(C2CCCN(CCS(C)(=O)=O)C2)cc1C(=O)Nc1c(C(=O)Nc2ccc(F)c(C(F)(F)F)c2)sc2cc(C(F)(F)F)ccc12` (stereo not shown) [Example 100, N-(4-fluoro-3-(trifluoromethyl)phenyl)-3-(2-methoxy-5-(1-(2-(methylsulfonyl)ethyl)piperidin-3-yl)benzamido)-6-(trifluoromethyl) benzo[b] thiophene-2-carboxamide], the pEC50 was 5.70.

For `COc1ccc(-c2cccc(CNS(C)(=O)=O)c2)cc1C(=O)Nc1c(C(=O)Nc2ccc(F)c(C(F)(F)F)c2)sc2cc(C(F)(F)F)ccc12` [Example 121, N-(4-fluoro-3-(trifluoromethyl)phenyl)-3-(4-methoxy-3′-(methylsulfon-amidomethyl)-[1,1′-biphenyl]-3-carboxamido)-6-(trifluoromethyl) benzo[b] thiophene-2-carboxamide], the negative logarithm of the EC50 (pEC50) is 6.95. Compared with the last molecule, the pEC50 is 1.25 log units higher.

As to `COc1ccc(C2CC3CCC(C2)N3CC(N)=O)cc1C(=O)Nc1c(C(=O)Nc2ccc(F)c(C(F)(F)F)c2)sc2cc(C(F)(F)F)ccc12` (stereo not shown) [Example 192, 3-(5-(8-(2-amino-2-oxoethyl)-8-azabicyclo[3.2.1]octan-3-yl)-2-methoxy-benzamido)-N-(4-fluoro-3-(trifluoromethyl)phenyl)-6-(trifluoromethyl) benzo[b] thiophene-2-carboxamide], the negative-log EC50 (pEC50) was 6.05. This pEC50 is 0.90 log units lower than that of the molecule before.

The molecule `COc1ccc(S(=O)(=O)N2CCC[C@@H](NCC(N)=O)C2)cc1C(=O)Nc1c(C(=O)Nc2ccc(F)c(C(F)(F)F)c2)sc2cc(C(F)(F)F)ccc12` [Example 31] gave a negative logarithm of the EC50 (pEC50) of 5.48.

With `COc1ccc(-c2cccc(C(C)(C)O)c2)cc1C(=O)Nc1c(C(=O)Nc2ccc(F)c(C(F)(F)F)c2)sc2cc(C(F)(F)F)ccc12` [Example 120, N-(4-fluoro-3-(trifluoromethyl)phenyl)-3-(3′-(2-hydroxypropan-2-yl)-4-methoxy-[1,1′-biphenyl]-3-carboxamido)-6-(trifluoromethyl) benzo[b] thiophene-2-carboxamide], the negative logarithm of the EC50 (pEC50) is 6.64. Against the preceding molecule, the pEC50 is 1.16 log units higher.

Regarding `COc1ccc(C2=NOC(C(C)(C)O)C2)cc1C(=O)Nc1c(C(=O)Nc2ccc(F)c(C(F)(F)F)c2)sc2cc(C(F)(F)F)ccc12` (single isomer, unassigned) [Example 257, N-[4-fluoro-3-(trifluoromethyl)phenyl]-3-{5-[5-(2-hydroxypropan-2-yl)-4,5-dihydro-1,2-oxazol-3-yl]-2-methoxy-benzamido}-6-(trifluoromethyl)-1-benzothiophene-2-carboxamide], the pEC50 was 6.78.

For the molecule `CCS(=O)(=O)Nc1cncc(-c2ccc(OC)c(C(=O)Nc3c(C(=O)Nc4ccc(F)c(C(F)(F)F)c4)sc4cc(C(F)(F)F)ccc34)c2)c1` [Example 116, 3-(5-(5-(ethylsulfonamido)pyridin-3-yl)-2-methoxy-benzamido)-N-(4-fluoro-3-(trifluoromethyl)phenyl)-6-(trifluoromethyl) benzo[b] thiophene-2-carboxamide], the pEC50 was 6.19.

`COc1ccc(C2CCN(C(=O)CC(C)(C)O)C2)cc1C(=O)Nc1c(C(=O)Nc2ccc(F)c(C(F)(F)F)c2)sc2cc(C(F)(F)F)ccc12` (stereo not shown) [Example 136, N-(4-fluoro-3-(trifluoromethyl)phenyl)-3-(5-(1-(3-hydroxy-3-methylbutanoyl)pyrrolidin-3-yl)-2-methoxy-benzamido)-6-(trifluoromethyl) benzo[b] thiophene-2-carboxamide] had a negative logarithm of the EC50 (pEC50) of 6.29. This pEC50 and that of the molecule before are within 0.2 log units of each other.

In turn, `COc1ccc(-n2cc(C(=O)O)cn2)cc1C(=O)Nc1c(C(=O)Nc2ccc(F)c(C(F)(F)F)c2)sc2cc(C(F)(F)F)ccc12` [Example 2, 1-(3-((2-((4-fluoro-3-(trifluoromethyl)phenyl)carbamoyl)-6-(trifluoromethyl)benzo[b]thiophen-3-yl)carbamoyl)-4-methoxyphenyl)-1H-pyrazole-4-carboxylic acid] had a negative-log EC50 (pEC50) of 5.70.

`COc1ccc(-c2cccc(C(NC(=O)C3CCOCC3)C(=O)O)c2)cc1C(=O)Nc1c(C(=O)Nc2ccc(F)c(C(F)(F)F)c2)sc2cc(C(F)(F)F)ccc12` (single isomer, unassigned) [Example 25, 2-(3′-((2-((4-fluoro-3-(trifluoromethyl)phenyl)carbamoyl)-6-(trifluoromethyl)benzo[b]thiophen-3-yl)carbamoyl)-4′-methoxy-[1, 1′-biphenyl]-3-yl)-2-(tetrahydro-2H-pyran-4-carboxamido) acetic acid] had a pEC50 of 8.42.

Turning to `COCC(=O)N1CCC(c2ccc(OC)c(C(=O)Nc3c(C(=O)Nc4ccc(F)c(C(F)(F)F)c4)sc4cc(C(F)(F)F)ccc34)c2)C1` (stereo not shown) [Example 144, N-(4-fluoro-3-(trifluoromethyl)phenyl)-3-(2-methoxy-5-(1-(2-methoxyacetyl)pyrrolidin-3-yl)benzamido)-6-(trifluoromethyl) benzo[b] thiophene-2-carboxamide], the negative logarithm of the EC50 (pEC50) is 5.84. This pEC50 lies 2.58 log units lower than the previous one.

Molecule `COC(=O)C1CC(c2ccc(OC)c(C(=O)Nc3c(C(=O)Nc4ccc(F)c(C(F)(F)F)c4)sc4cc(C(F)(F)F)ccc34)c2)=NO1` (stereo not shown) [Example 57, methyl 3-(3-((2-((4-fluoro-3-(trifluoromethyl)phenyl)carbamoyl)-6-(trifluoromethyl)benzo[b]thiophen-3-yl)carbamoyl)-4-methoxyphenyl)-4,5-dihydroisoxazole-5-carboxylate] had a pEC50 of 6.20.

In turn, `COc1ccc(C(=O)N2CC(CO)C2)cc1C(=O)Nc1c(C(=O)Nc2ccc(F)c(C(F)(F)F)c2)sc2cc(C(F)(F)F)ccc12` [Example 177, N-(4-fluoro-3-(trifluoromethyl)phenyl)-3-(5-(3-(hydroxymethyl)azetidine-1-carbonyl)-2-methoxy-benzamido)-6-(trifluoromethyl) benzo[b] thiophene-2-carboxamide] had a negative-log EC50 (pEC50) of 6.83.
